# Laboratory results: patent publication US6482806B1, “Product of heat treatment of uronic acid, food, drink, or drug including the product” (Takara Shuzo Co., Ltd., priority 1996, dated 2002)
# *1 amine or outer side, *2 acyl side, *3 side chain or, on linkers, in order; H or OH if unused. Where a SMILES comes first, the peptide text is derived from it. Bridges are numbered along the chain shown (N, C = ends). Roman numbers before positions name the chains, in order. [ ]: non-standard residue; d: D form. Actinocin(9to1) = Cc1c2oc3c(C)ccc(C(=O)[*:1])c3nc-2c(C(=O)[*:2])c(N)c1=O; NMeV = CN[C@H](C(=O)O)C(C)C; Sar = CNCC(=O)O
# What was measured:
# [1] = system: Human promyelocytic leukemia cells HL-60 (ATCC CRL-1964); assay: Apoptosis induction in HL-60 cells, optical microscope (Example 1); type: cell-based; conditions: 0.1 ml of aqueous solution (0.1 mg/ml) added, 16 hours
# Method: Human promyelocytic leukemia cells HL-60 (ATCC CRL-1964) were incubated in an RPMI 1640 medium (manufactured by Nissui) containing 10% of fetal calf serum (manufactured by Gibco) treated at 56° C. for 30 minutes and then suspended in an ASF 104 medium (manufactured by Ajinomoto) to make the cell concentration 5×10^5cells/9 ml.
# To this suspension was added 1 ml of the heat-treated pectin solution and the mixture was incubated at 37° C. for 16 hours in the presence of 5% of carbon dioxide. For the sake of confirmation, the same incubation as above was conducted except that 0.1 ml of aqueous solution (0.1 mg/ml) of actinomycin D (manufactured by Sigma) which was known as an apoptosis-inducing reagent and 0.9 ml of a physiological saline solution were used instead of the above-mentioned pectin solution.
# Incidentally, in the control where the cells to which 1 ml of physiological saline solution was added were incubated, such phenomena were not observed.
# [2] = system: human promyelocytic leukemia cells (HL-60) (ATCC CCL-240); assay: Apoptosis-inducing activity to HL-60 cells, microscope and trypan blue count (method of Example 7); type: cell-based; conditions: 0.05 ml of aqueous solution (0.1 mg/ml) added, 16 hours
# Method: Thus, HL-60 (ATCC CCL-240) were incubated in an RPMI 1640 medium (manufactured by Nissui) containing 10% of fetal calf serum (manufactured by Gibco) treated at 56° C. for 30 minutes and then suspended in an RPMI 1640 medium to make the cell concentration 2.5×10^5 cells/4.5 ml.
# To 4.5 ml of this suspension was added 0.5 ml of the above-mentioned heat-treated pectin solution and the mixture was incubated at 37° C. for 16 hours in the presence of 5% of carbon dioxide. For the sake of confirmation, the same incubation as above was conducted except that 0.05 ml of an aqueous solution (0.1 mg/ml) of actinomycin D (manufactured by Sigma) which was known as an apoptosis-inducing reagent and 0.45 ml of a physiological saline solution were used instead of the above-mentioned heat-treated pectin solution.
# Incidentally, in the control where the cells to which 0.5 ml of a physiological saline solution was added were incubated, such phenomena were not observed.
# Further, to the cell suspension was added twice as much by volume of a 0.4% aqueous solution of trypan blue and an observation was conducted under an optical microscope whereby trypan blue was excreted and colorless cells and blue-colored cells were counted as viable and dead cells, respectively.
compound,measurement,setting,value
"Cc1c2oc3c(C)ccc(C(=O)N[C@@H]4C(=O)N[C@H](C(C)C)C(=O)N5CCC[C@H]5C(=O)N(C)CC(=O)N(C)[C@@H](C(C)C)C(=O)O[C@@H]4C)c3nc-2c(C(=O)N[C@@H]2C(=O)N[C@H](C(C)C)C(=O)N3CCC[C@H]3C(=O)N(C)CC(=O)N(C)[C@@H](C(C)C)C(=O)O[C@@H]2C)c(N)c1=O [actinomycin D] (I: T[dV]P[Sar][NMeV] / II: T[dV]P[Sar][NMeV]; ester I:1-I:C, II:1-II:C; linker I:N-II:N via Actinocin(9to1))","condensation of nuclei, contraction of cells and production of apoptotic body",[1],"condensation of nuclei, contraction of cells and production of apoptotic body were confirmed"
same,"condensation of nuclei, contraction of cells and production of apoptotic body",[2],"condensation of nuclei, contraction of cells and production of apoptotic body were confirmed"
